Results from publication PMC7023064, “Design, Synthesis, and Evaluation of Novel 2-Methoxyestradiol Derivatives as Apoptotic Inducers through an Intrinsic Apoptosis Pathway” (Biomolecules, 2020).

Tests used:
Format in all cases: cell-based, human
MCF-7 cells [1] = assay: Cell cycle assay (PI staining, flow cytometry); conditions: 72 h
Procedure: MCF-7 cells at a density of 5 × 10^5 cells/well were seeded in 6-well plates and incubated at 37 °C in a humidified 5% CO2 incubator for 24 h. Exponentially growing cells were treated with compound 11/12a (0, 5, 10, and 20 μM) for 72 h. Then, the cells were harvested and fixed with 70% precooled ethanol at 4 °C for 12 h. Later, the cells were centrifuged and washed with cold PBS. 100 μL of RNase A was added, and then bathed in water for 30 min at 37 °C. Subsequently, cells were stained by 400 μL of propidium iodide (PI) for 30 min at 4 °C in the dark. Finally, cellular DNA was measured using a flow cytometry (FACS Calibur Becton-Dickinson, San Jose, California, USA).

MCF-7 cells [2] = assay: Cell apoptosis analysis (Annexin V-APC/7-AAD double staining); conditions: 72 h
Procedure: MCF-7 cells at a density of 2 × 10^5 cells/well were seeded on each well of 6-well plates and allowed to grow overnight. Then the cells were treated with compound 11/12a (5, 10, and 20 μM) for 72 h, while cells without treatment were used as control group. The treated cells were trypsinized and washed with cold PBS twice, then centrifuged at 2000 rpm for 5 min and resuspended in 500 μL annexin V binding buffer. 5 μL of Annexin V- allophycocyanin (APC) was added, and the mixture was incubated in the dark at 25 °C for 15 min. Then, 5 μL of 7-AAD was added just prior to acquisition. Apoptosis was analyzed by Annexin V-APC and 7-AAD double staining by flow cytometry (FACS Calibur Becton-Dickinson, San Jose, Califormia, USA).

[3] = tested on: MCF-7 breast cancer cells; assay: Real-time polymerase chain reaction of apoptosis genes; conditions: 5, 10, and 20 μM, GAPDH as control
Procedure: RNA was isolated using Trizol Reagent (Invitrogen, Carlsbad, California, USA). cDNA was made via the manufacturer’s instructions with the first chain of a cDNA synthesizing kit (Fermentas, Lithuania). Real-time polymerase chain reaction (RT-PCR) was performed on a Da An Gene DA7600 Real Time machine using Da An Gene incorporation (ZhongShan, China). The 2^−ΔΔCT method was used to calculate the relative levels of gene expression using Da An Gene DA7600 QPCR software v3.00 (Da An Gene). The GAPDH (human) expression was used as the internal control. A standard melting-curve cycle was used to confirm the quality of amplification. The reactions were performed in triplicate for each sample. The gene-specific primers were designed with the Primer5 BLAST software by GenScript Co., Ltd. (Nanjing, China): • 1 GAPDH (human): primer (122 bp), • Sense primer: 5′ […] 3’ • Antisense primer: 5′ […] 3′ • 2 Apaf-1 (human): primer (134 bp), • Sense primer: 5′ […] 3′ • Antisense primer: 5′ […] 3′ • 3 Bax (human): primer (112 bp), • Sense primer: 5 ′TTGCTTCAGGGTTTCATCC 3′ • Antisense primer: 5′ […] 3′ • 4 Bcl-2 (human): primer (116 bp), • Sense primer: 5′ […] 3′ • Antisense primer: 5′ […] 3′ • 5 Bcl-xL (human): primer (124 bp), • Sense primer: 5′ […] 3′ • Antisense primer: 5′ […] 3′ • 6 Caspase-3 (human): primer (131 bp), • Sense primer: 5′ […] 3′ • Antisense primer: 5′ […] 3′ • 7 Caspase-8 (human): primer (122 bp), • Sense primer: 5′ […] 3′ • Antisense primer: 5′ […] 3′ • 8 Caspase-9 (human): primer (136 bp), • Sense primer: 5′ […] 3′ • Antisense primer: 5′ […] 3′ • 9 Cytochrome c (human): primer (127 bp), • Sense primer: 5′ […] 3′ • Antisense primer: 5′ […] 3′

MCF-7 cells [4] = assay: Hoechst 33258 staining; conditions: 0, 5, 10, and 20 μM, 72 h; at higher concentrations
Procedure: The nuclear morphological changes and apoptotic effects induced by compound 11/12a were detected using Hoechst 33,258 staining. Cells grown on a sterile cover slip were treated with 11/12a for 72 h in six-well tissue culture plates. Cells were collected and mounted on a slide, fixed for 30 min with 4% paraformaldehyde, and washed three times with PBS. Then, cells were stained with Hoechst 33,258 (2 mg/mL in PBS) for 10 min at room temperature in the dark. The cells were subsequently washed three times with PBS and observed with a fluorescence microscope.

## 17 β-[6-(Uracil-3-yl)-Hexyloxy]-2-Methoxy-Estra-1,3,5(10)-Triene-3-ol [Compound 12a]
MCF-7 cells [1]; 5 μM
  cells at the G2 phase: 7.97%
MCF-7 cells [1]; 10 μM
  cells at the G2 phase: 13.93%
MCF-7 cells [1]; 20 μM
  cells at the G1 phase: 54.41%
  cells at the G2 phase: 22.46%
MCF-7 cells [2]; 5 μM
  total early and late apoptotic cells: 12.1%
MCF-7 cells [2]; 10 μM
  total early and late apoptotic cells: 30.86%
MCF-7 cells [2]; 20 μM
  total early and late apoptotic cells: 67.28%
[3]
  mRNA expression levels of Apaf-1, Bax, caspase-3, caspase-8, caspase-9, and cytochrome c: upregulated
  mRNA expression levels of Bcl-2 and Bcl-xL: downregulated
MCF-7 cells [4]
  Hoechst 33258 fluorescence / cell morphology: stronger blue fluorescence

## COc1cc2c(cc1O)CC[C@@H]1[C@@H]2CC[C@]2(C)[C@@H](OCCCCCCCCn3c(=O)ccn([C@@H]4O[C@H](CO)[C@@H](O)[C@H]4O)c3=O)CC[C@@H]12 [Compound 11, 17 β-[8-(1-β-D-Ribofuranosyluracil-3-yl)-Octyloxy]-2-Methoxy-Estra-1,3,5(10)-Triene-3-ol]
MCF-7 cells [1]; 5 μM
  cells at the G2 phase: 8.32%
MCF-7 cells [1]; 10 μM
  cells at the G2 phase: 15.48%
MCF-7 cells [1]; 20 μM
  cells at the G1 phase: 42.84%
  cells at the G2 phase: 24.11%
MCF-7 cells [2]; 5 μM
  total early and late apoptotic cells: 13.21%
MCF-7 cells [2]; 10 μM
  total early and late apoptotic cells: 33.24%
MCF-7 cells [2]; 20 μM
  total early and late apoptotic cells: 67.74%
[3]
  mRNA expression levels of Apaf-1, Bax, caspase-3, caspase-8, caspase-9, and cytochrome c: upregulated
  mRNA expression levels of Bcl-2 and Bcl-xL: downregulated
MCF-7 cells [4]
  Hoechst 33258 fluorescence / cell morphology: stronger blue fluorescence
